Source: patent US8852591B2, “Combination of BLyS and/or APRIL inhibition and immunosuppressants for treatment of autoimmune disease” (Zymogenetics, Inc., priority 2007, dated 2014)

Columns and labels:
total serum IgG = test: 28-day atacicept and MMF co-administration study, total serum IgG by ELISA; type: in vivo, CD-1 mice
Procedure: (§1) Atacicept and MMF (CellCept) co-administration was tested in a 28-day study in CD-1 mice. One hundred fifty animals were distributed among four treatment groups. Group 1 received vehicle control articles used for both atacicept and MMF using the same route and regimen used for each test article. Group 2 received MMF (351 mg/kg) via daily oral gavage. Group 3 received atacicept (20 mg/kg) three times weekly via subcutaneous injection. Group 4 received atacicept (20 mg/kg, 3×/week, SC) and MMF (351 mg/kg, daily, oral), typically administered within 30 minutes of each other. […]
(§2) Animals were sacrificed at baseline (Day-1) and Days 14, 28 (last day of treatment), 42, 56, and 112. […] Body weights were measured and recorded on Day-1 of the study and weekly thereafter, and prior to sacrifice. […] Total serum IgG, IgM, and IgA were measured using a […] necropsies were conducted on sacrificed animals for evaluation of organ weight changes, gross pathology, and histopathology.
(§3) Total IgG levels were evaluated using a mouse IgG ELISA quantitation kit (Catalog #E90-131, Bethyl Laboratories, Montgomery, Tex.), combined with the ELISA Starter Accessory Package (Catalog #E101, Bethyl Laboratories, Montgomery, Tex.). […] The color reaction was stopped with addition of 2 M H2SO4, and the resulting absorbance (OD-450) was measured on a Spectramax 190 microplate reader. […]

total serum IgM = test: 28-day atacicept and MMF co-administration study, total serum IgM by ELISA; type: in vivo, CD-1 mice
Procedure: as §1, §2
as §3, with “IgM” for “IgG”, “#E90-101,” for “#E90-131,”

total serum IgA = test: 28-day atacicept and MMF co-administration study, total serum IgA by ELISA; type: in vivo, CD-1 mice
Procedure: as §1, §2
as §3, with “IgA” for “IgG”, “#E90-103,” for “#E90-131,”

total IgA serum levels = test: Repeat and extension of atacicept and MMF combination experiment, total IgA by ELISA; type: in vivo, mice; settings: for Numeric mean IgA: dosing until day 91
Procedure: (§4) Using similar procedures to those described in Example 3 and dosing until day 91, the results of Example 3 were replicated and extended in time to days 35, 91, 126, and 182.
(§5) Group 1 received both the vehicle for ATACICEPT and the vehicle for CellCept at the same treatment frequency as the treated groups. Group 2 was treated with only ATACICEPT
(§6) Group 3 received only CellCept. Group 4 received CellCept oral gavage followed by ATACICEPT s.c. injection within a period of approximately 30 minutes. The day of the first treatment was considered day 1 of the study. Throughout the study period clinical observations, hematological and blood chemistry tests, toxicokinetics and additional investigations were carried out.
(§7) Additional satellite groups of animals were used for total immunoglobulin determinations and antibody determination. They were treated and weighed according to the same procedures as the main study.
(§8) Blood samples were collected from 3 animals/sex/group (in progressive numerical order) for the determination of IgG, IgM and IgA serum levels at the following times:
(§9) from animals of groups 9, 10, 11 and 12:
(§10) • on day 34 of the 5-week treatment period • on day 90 of the 13-week treatment period • on day 34 of the 5-week recovery period • on day 90 of the 13-week recovery period
(§11) The blood (at least 0.8-1 mL) was collected at sacrifice from the abdominal aorta of mice after they have been completely anaesthetized with diethyl ether.
(§12) Samples were collected in tubes without any anticoagulant and allowed to clot for about 1 hour at room temperature. The clot were spun down by centrifugation at 3000 rpm at +4° C. for 15 minutes. Blood cells were discarded and the serum banked in 100 μL aliquots (four aliquots for every single analysis) and stored at −80° C. until analysis. Total IgG, IgM and IgA levels were determined by validated ELISA methods.

total IgG serum levels = test: Repeat and extension of atacicept and MMF combination experiment, total IgG by ELISA; type: in vivo, mice; settings: for Numeric mean IgG: dosing until day 91, atacicept 20 mg/kg s.c. 3/week, MMF 350 mg/kg/day oral
Procedure: as §4, §5, §6, §7, §8, §9, §10, §11, §12

total IgM serum levels = test: Repeat and extension of atacicept and MMF combination experiment, total IgM by ELISA; type: in vivo, mice; settings: for Numeric mean IgM: dosing until day 91
Procedure: as §4, §5, §6, §7, §8, §9, §10, §11, §12

[1] = Day 28 (last day of treatment), MMF 351 mg/kg daily oral, atacicept 20 mg/kg 3x/week SC
[2] = Day 28, positive = reduction versus vehicle

In the case of COc1c(C)c2c(c(O)c1C/C=C(\C)CCC(=O)OCCN1CCOCC1)C(=O)OC2 [MMF, mycophenolate mofetil], the “Numeric mean IgG” value (total serum IgG; [1]) is reported as 185 µg/mL, the “Difference from Vehicle, mean IgG (vehicle minus treatment)” value (total serum IgG; [2]) is reported as -6 µg/mL and the “Numeric mean IgM” value (total serum IgM; [1]) is reported as 317 µg/mL. The “Difference from Vehicle, mean IgM (vehicle minus treatment)” value (total serum IgM; [2]) was -79 µg/mL, the “Numeric mean IgA” value (total serum IgA; [1]) was 506 µg/mL and the “Difference from Vehicle, mean IgA (vehicle minus treatment)” value (total serum IgA; [2]) was -8 µg/mL. For the same compound, the “Difference from Vehicle, mean IgA (vehicle minus treatment)” value (total IgA serum levels; Sample Day 91) was -840.19 µg/mL, the “Numeric mean IgA” value (total IgA serum levels; Sample Day 91, atacicept 20 mg/kg s.c. 3/week, MMF 350 mg/kg/day oral) was 1764.55 µg/mL and the “Difference from Vehicle, mean IgA (vehicle minus treatment)” value (total IgA serum levels; Sample Day 126) was -353.57 µg/mL. The “Numeric mean IgA” value (total IgA serum levels; Sample Day 126 (recovery period)) was 1467.05 µg/mL, the “Difference from Vehicle, mean IgG (vehicle minus treatment)” value (total IgG serum levels; Sample Day 35) was -420.43 µg/mL and the “Numeric mean IgG” value (total IgG serum levels; Sample Day 35) was 940.13 µg/mL. For the same compound, the “Difference from Vehicle, mean IgG (vehicle minus treatment)” value (total IgG serum levels; Sample Day 91) was -495.86 µg/mL, the “Numeric mean IgG” value (total IgG serum levels; Sample Day 91) was 1192.87 µg/mL and the “Difference from Vehicle, mean IgM (vehicle minus treatment)” value (total IgM serum levels; Sample Day 35) was -35.64 µg/mL. The “Numeric mean IgM” value (total IgM serum levels; Sample Day 35, atacicept 20 mg/kg s.c. 3/week, MMF 350 mg/kg/day oral) was 141.34 µg/mL, the “Difference from Vehicle, mean IgM (vehicle minus treatment)” value (total IgM serum levels; Sample Day 182) was 20.18 µg/mL and the “Numeric mean IgM” value (total IgM serum levels; Sample Day 182 (recovery period)) was 53.77 µg/mL.
